{"source": "patent US9371265B2", "about": "“Compositions and methods related to inhibitors of JAK kinase” (EP PHARMA, INC., priority 2012, dated 2016)", "key": {"TIE2": {"target": "TIE2 (Homo sapiens, UniProt Q02763)", "sequence (Q02763 23-1124)": "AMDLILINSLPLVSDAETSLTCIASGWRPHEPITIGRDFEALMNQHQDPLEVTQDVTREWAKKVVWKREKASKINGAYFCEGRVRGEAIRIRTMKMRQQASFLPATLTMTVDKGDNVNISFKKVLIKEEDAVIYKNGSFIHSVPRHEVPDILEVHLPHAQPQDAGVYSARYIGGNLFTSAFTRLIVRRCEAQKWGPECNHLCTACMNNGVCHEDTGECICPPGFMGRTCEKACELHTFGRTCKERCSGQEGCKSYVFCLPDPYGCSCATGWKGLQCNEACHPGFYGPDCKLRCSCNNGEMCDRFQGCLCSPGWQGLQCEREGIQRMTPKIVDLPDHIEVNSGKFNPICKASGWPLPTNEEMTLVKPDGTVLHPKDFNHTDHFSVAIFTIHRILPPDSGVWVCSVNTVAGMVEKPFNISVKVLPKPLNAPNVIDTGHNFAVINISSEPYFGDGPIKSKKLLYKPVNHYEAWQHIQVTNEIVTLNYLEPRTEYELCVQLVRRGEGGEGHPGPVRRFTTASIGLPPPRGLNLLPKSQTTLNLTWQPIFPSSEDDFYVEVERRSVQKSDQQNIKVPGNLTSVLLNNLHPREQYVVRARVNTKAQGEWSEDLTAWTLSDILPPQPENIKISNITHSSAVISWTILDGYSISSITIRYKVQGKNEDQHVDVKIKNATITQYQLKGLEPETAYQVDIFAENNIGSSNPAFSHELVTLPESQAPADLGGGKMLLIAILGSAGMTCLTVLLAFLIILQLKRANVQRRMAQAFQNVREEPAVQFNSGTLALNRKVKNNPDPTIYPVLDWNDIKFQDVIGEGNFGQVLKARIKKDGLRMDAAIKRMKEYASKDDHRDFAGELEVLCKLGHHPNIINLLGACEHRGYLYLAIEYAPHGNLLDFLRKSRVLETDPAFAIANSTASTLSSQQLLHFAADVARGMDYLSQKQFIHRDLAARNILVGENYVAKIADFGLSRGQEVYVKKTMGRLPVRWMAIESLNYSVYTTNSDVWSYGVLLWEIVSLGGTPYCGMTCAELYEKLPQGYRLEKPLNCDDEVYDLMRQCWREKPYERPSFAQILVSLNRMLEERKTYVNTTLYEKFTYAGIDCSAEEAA", "assay": "Kinase panel: TIE2", "assay_type": "biochemical", "conditions": "10 μM EP009", "protocol": "(§1) Achieving JAK3 selectivity remains a significant challenge in the development of new small molecules for the treatment of cancer and immune-derived diseases. As such, the inventors employed cell-based screening assays of small-molecule libraries based upon the chemical scaffold of the established JAK3 inhibitor NC1153 (Stepkowski et al., J Immunol. (2005), 175(7):4236-4246) EP009 (FIG. 2A) was selected as a lead compound due to improved intrinsic stability (>95% purity in various solvents at 37° C. for 24 hours; FIG. 3) and high-degree of JAK3 selectivity. To test JAK3 versus JAK2 specificity of EP009, the IL-2/JAK3-dependent Kit225, and IL-3/JAK2-dependent BaF/3 cell lines were used. Kit225 and BaF/3 cells growing in the presence of IL-2 or IL-3, respectively, were treated with ascending concentrations of EP009 for 12 hours and cellular JAK3 and JAK2 tyrosine phosphorylation levels detected by Western blot analysis (FIGS. 2B and 2C). Following densitometric analysis, EP009 was determined to dose-dependently reduce IL-2-mediated JAK3 tyrosine phosphorylation with a cellular 50% inhibitory concentration (IC50) between 10 and 20 μM (FIG. 2B). […] To globally evaluate specificity, the inhibitory activity of EP009 was measured against a panel of protein kinases distributed throughout the kinome using the scanEDGE profiling service (KINOMEscan). […]"}, "caspase 3": {"system": "caspase 3", "assay": "Caspase 3 activation in SU-DHL-1 cells (Luminex multiplex)", "assay_type": "cell-based, human", "conditions": "24 hours, dose-dependent", "protocol": "FIGS. 7A-7C. EP009 reduces ALCL cell viability through induction of caspase 3 mediated apoptosis. (A) SUP-M2, SU-DHL-1 or H2228 cells were cultured with increasing amounts of EP009 (0-10 μM) for 72 hours and cell viability measured with the MTS tetrazolium salt assay. Values represent mean absorbance (OD490-OD650 nm) normalized to vehicle (PBS) treated control cells, while error bars represent the standard deviation (n=3). (B) SU-DHL-1 cells were treated with vehicle (PBS) or increasing amounts of EP009 (0-50 μM) for 24 hours. Cells were then lysed, clarified, and subjected to Luminex multiplex analysis to detect activated caspase 3 and (C) cleaved PARP. Values represent MFI normalized to corresponding GAPDH MFI, while error bars represent the standard deviation (n=2). Representative data from three independent experiments are shown. Statistical significance was determined using Student's t-test. (*, p<0.05).\nThe MILLIPLEX MAP 8-plex Multi-Pathway Signaling Phosphoprotein kit (Millipore) was used to detect phosphorylated ERK1/2 (Thr185/Tyr187), STAT3 (Ser727), JNK1/2 (Thr183/Tyr185), p70 S6 kinase (Thr412), IκBα (Ser32), STAT5A/B (Tyr694/699), CREB (Ser133), and p38 (Thr180/Tyr182). The MILLIPLEX MAP 5-plex STAT Phosphoprotein kit (Millipore) was used to detect phosphorylated STAT1 (Tyr701), STAT2 (Tyr690), STAT3 (Tyr705), STAT5A/B (Tyr694/699), and STAT6 (Tyr641). […]"}, "STAT3": {"system": "STAT3", "assay": "Phospho-STAT3 in SU-DHL-1 cells (Luminex multiplex)", "assay_type": "cell-based, human", "conditions": "0-40 μM, 12 hours", "text": "FIGS. 6A-6B. EP009 treatment disrupts constitutive JAK3/STAT3 pathway activation and down-regulates CD30 cell surface expression in human ALCL cells. (A) Kit225 (lane a), SUP-M2 (lane b), Karpas299 (lane c), DEL (lane d) and SU-DHL-1 (lane e) total cell lysates were separated by 7.5% SDS-PAGE (upper panel) or were immunoprecipitated (IP) with JAK3 antibodies (lower panel) and separated on 7.5% SDS-PAGE, and then subjected to Western blot (WB) analysis with the indicated antibodies. (B) SU-DHL-1 cells were treated with vehicle (PBS; lane a) or increasing amounts of EP009 (0-40 μM; lanes b-e) for 12 hours. Cells were then lysed, clarified, and immunoprecipitated (IP) with anti-JAK3 (α-JAK3), and subjected to Western blot (WB) analysis with anti-phosphotyrosine (α-pY). Blots were stripped and reprobed with α-JAK3 to verify equivalent protein loading. (C) SU-DHL-1 cells were treated with vehicle (PBS) or increasing amounts of EP009 (0-40 μM) for 12 hours. […] Values represent pSTAT mean fluorescence intensity (MFI) normalized to corresponding GAPDH MFI, while error bars represent the standard deviation (n=2). Statistical significance was determined using Student's t-test. […] Cells were then analyzed by flow cytometry for CD30 expression. […]"}, "CSNK1D": {"target": "CSNK1D (Homo sapiens, UniProt P48730)", "sequence (P48730 whole entry)": "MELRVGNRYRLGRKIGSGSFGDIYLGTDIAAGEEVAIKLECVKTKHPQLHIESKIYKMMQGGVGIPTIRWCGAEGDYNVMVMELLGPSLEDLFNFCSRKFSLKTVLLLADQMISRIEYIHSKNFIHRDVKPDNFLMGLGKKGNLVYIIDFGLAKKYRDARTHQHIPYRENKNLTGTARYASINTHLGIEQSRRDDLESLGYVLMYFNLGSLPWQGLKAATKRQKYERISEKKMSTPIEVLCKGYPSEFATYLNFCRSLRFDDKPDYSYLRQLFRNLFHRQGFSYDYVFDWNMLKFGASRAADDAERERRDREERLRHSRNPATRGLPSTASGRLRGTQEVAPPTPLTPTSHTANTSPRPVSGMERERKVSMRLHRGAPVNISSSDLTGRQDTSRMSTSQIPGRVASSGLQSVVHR", "assay": "Kinase panel: CSNK1D", "assay_type": "biochemical", "conditions": "10 μM EP009", "protocol": "as §1"}, "PIM2": {"target": "PIM2 (Homo sapiens, UniProt Q9P1W9)", "sequence (Q9P1W9 whole entry)": "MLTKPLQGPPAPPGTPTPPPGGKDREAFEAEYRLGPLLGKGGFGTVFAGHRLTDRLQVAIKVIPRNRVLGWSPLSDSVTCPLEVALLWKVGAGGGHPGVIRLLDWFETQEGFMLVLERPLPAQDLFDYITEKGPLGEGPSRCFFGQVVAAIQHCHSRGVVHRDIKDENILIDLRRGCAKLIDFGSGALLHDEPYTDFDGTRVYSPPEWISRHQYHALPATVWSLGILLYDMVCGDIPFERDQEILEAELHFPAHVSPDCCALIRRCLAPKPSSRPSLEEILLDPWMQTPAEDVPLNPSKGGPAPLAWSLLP", "assay": "Kinase panel: PIM2", "assay_type": "biochemical", "conditions": "10 μM EP009", "protocol": "as §1"}, "CDK2": {"target": "CDK2 (Homo sapiens, UniProt P24941)", "assay": "Kinase panel: CDK2", "assay_type": "biochemical", "conditions": "10 μM EP009", "protocol": "as §1"}, "KIT(D816V)": {"target": "KIT(D816V) (Homo sapiens, UniProt P10721, D816V)", "sequence (P10721 26-976 D816V)": "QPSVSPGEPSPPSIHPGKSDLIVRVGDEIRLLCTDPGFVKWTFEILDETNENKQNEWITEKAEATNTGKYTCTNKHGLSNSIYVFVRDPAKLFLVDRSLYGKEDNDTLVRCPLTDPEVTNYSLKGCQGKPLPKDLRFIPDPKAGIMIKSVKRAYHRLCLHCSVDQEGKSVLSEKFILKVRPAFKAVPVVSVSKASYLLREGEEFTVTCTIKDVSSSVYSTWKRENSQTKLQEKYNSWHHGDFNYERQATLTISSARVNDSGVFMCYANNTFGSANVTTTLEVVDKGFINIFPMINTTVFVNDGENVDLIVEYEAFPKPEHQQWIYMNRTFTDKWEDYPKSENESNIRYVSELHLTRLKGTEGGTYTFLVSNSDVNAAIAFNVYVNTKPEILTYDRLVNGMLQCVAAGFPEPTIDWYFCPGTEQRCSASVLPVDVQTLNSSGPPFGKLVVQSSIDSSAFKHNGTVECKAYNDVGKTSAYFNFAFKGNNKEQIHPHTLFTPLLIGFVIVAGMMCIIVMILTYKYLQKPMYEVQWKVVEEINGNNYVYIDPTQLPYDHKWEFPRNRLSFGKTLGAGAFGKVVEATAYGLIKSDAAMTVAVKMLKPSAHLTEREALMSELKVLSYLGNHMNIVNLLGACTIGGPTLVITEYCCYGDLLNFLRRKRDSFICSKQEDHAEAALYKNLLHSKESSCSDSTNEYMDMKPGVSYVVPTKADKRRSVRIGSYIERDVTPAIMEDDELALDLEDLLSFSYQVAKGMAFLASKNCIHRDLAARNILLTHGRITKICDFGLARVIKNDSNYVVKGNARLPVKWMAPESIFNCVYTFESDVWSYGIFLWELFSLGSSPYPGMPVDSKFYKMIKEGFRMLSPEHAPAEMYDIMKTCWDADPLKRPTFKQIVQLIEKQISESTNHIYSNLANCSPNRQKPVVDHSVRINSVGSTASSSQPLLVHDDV", "assay": "Kinase panel: KIT(D816V)", "assay_type": "biochemical", "conditions": "10 μM EP009", "protocol": "as §1"}}}
{"smiles": "C=C1CCCCCCCCCC(CO)C1=O", "note": "(stereo not shown) [EP009, 2-(Hydroxymethyl)-12-methylenecyclododecanone]", "values": [{"measurement": "Kinase Activity (% of Control)", "setting": "TIE2", "value": "90 % of Control"}, {"measurement": "caspase-3 activation", "setting": "caspase 3", "value": "increased"}, {"measurement": "effect on phospho-STAT3 levels", "setting": "STAT3", "value": "dose-dependent inhibition"}, {"measurement": "Kinase Activity (% of Control)", "setting": "CSNK1D", "value": "100 % of Control"}, {"measurement": "Kinase Activity (% of Control)", "setting": "PIM2", "value": "100 % of Control"}, {"measurement": "Kinase Activity (% of Control)", "setting": "CDK2", "value": "98 % of Control"}, {"measurement": "Kinase Activity (% of Control)", "setting": "KIT(D816V)", "value": "100 % of Control"}]}
